These results are taken from patent US8163724B2, “Glucocorticosteroids, processes for their preparation, pharmaceutical compositions containing them and their use in therapy” (AstraZeneca AB, priority 2007, dated 2012).

Each structure is given as a SMILES string.

The target of the experiment is T1, recombinant human GR (Homo sapiens, UniProt P04150).
T1 construct: purchased Panvera/Invitrogen P2812 (kit P2893)
T1 sequence (P04150 1-777): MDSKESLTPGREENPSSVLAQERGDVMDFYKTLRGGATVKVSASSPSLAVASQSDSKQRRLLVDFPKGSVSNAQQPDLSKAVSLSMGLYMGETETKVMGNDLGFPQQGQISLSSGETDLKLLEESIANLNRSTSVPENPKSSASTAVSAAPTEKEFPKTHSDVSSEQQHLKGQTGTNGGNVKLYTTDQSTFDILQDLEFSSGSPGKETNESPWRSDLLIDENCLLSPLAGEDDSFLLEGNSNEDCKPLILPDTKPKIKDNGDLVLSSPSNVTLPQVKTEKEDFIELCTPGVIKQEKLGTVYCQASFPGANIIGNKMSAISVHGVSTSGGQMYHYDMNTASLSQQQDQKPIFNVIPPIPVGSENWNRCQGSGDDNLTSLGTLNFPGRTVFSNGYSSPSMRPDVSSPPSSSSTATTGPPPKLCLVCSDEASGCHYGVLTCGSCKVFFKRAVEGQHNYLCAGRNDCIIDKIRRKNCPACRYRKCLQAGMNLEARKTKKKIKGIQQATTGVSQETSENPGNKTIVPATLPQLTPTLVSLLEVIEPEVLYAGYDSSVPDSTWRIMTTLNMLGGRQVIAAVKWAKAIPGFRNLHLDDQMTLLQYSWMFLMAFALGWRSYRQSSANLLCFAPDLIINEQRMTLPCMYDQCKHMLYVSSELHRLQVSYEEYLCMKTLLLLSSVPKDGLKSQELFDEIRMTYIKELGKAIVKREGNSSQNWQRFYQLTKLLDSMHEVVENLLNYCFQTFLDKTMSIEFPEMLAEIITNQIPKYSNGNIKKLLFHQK
The experiment can be described thus: Human Glucocorticoid Receptor (GR) Assay (fluorescence polarization, Panvera/Invitrogen kit). It counts as binding. As to conditions: fluorescence polarization; GS Red tracer; 2 hours at room temperature; 100% control 10 μM Dexamethasone; read-out: Inhibition of GR binding, IC50. In outline:
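Fluorescence polarization competition with recombinant GR and GS Red fluorescent ligand plus stabilizing peptide and DTT in potassium phosphate/sodium molybdate/EDTA buffer with DMSO. Incubated 2 hours at room temperature in the dark; 0% control DMSO, 100% control 10 μM dexamethasone.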
(In fluorescence polarisation assays a small probe gives low polarisation when free and higher when bound to something large.)
By IC50 is commonly meant the concentration that gives 50% inhibition. Take `Cc1cc(C(=O)O[C@]2(C(=O)SCC#N)CC[C@H]3[C@@H]4CCC5=Cc6c(cnn6-c6ccc(F)cc6)C[C@]5(C)[C@H]4[C@@H](O)C[C@@]32C)no1` [Example 116, (1R,3aS,3bS,10aR,10bS,11S,12aS)-1-{[(Cyanomethyl)sulfanyl]carbonyl}-7-(4-fluorophenyl)-11-hydroxy-10a,12a-dimethyl-1,2,3,3a,3b,4,5,7,10,10a,10b,11,12,12a-tetradecahydrocyclopenta[5,6]naphtho[1,2-f]indazol-1-yl 5-methylisoxazole-3-carboxylate]: the IC50 came out at 6.9 nM.

On to `CSCOC(=O)[C@@]1(O)CC[C@H]2[C@@H]3CCC4=Cc5c(cnn5-c5ccc(F)cc5)C[C@]4(C)[C@H]3[C@@H](O)C[C@@]21C` [Example 117, (Methylsulfanyl)methyl(1R,3aS,3bS,10aR,10bS,11S,12aS)-7-(4-fluorophenyl)-1,11-dihydroxy-10a,12a-dimethyl-1,2,3,3a,3b,4,5,7,10,10a,10b,11,12,12a-tetradecahydrocyclopenta[5,6]naphtho[1,2-f]indazole-1-carboxylate], for which the IC50 was found to be 7 nM. The value for `CSCSC(=O)[C@@]1(OC(C)=O)CC[C@H]2[C@@H]3CCC4=Cc5c(cnn5-c5ccc(F)cc5)C[C@]4(C)[C@H]3[C@@H](O)C[C@@]21C` [Example 118, (1R,3aS,3bS,10aR,10bS,11S,12aS)-7-(4-Fluorophenyl)-11-hydroxy-10a,12a-dimethyl-1-({[(methylsulfanyl)methyl]sulfanyl}carbonyl)-1,2,3,3a,3b,4,5,7,10,10a,10b,11,12,12a-tetradecahydrocyclopenta[5,6]naphtho[1,2-f]indazol-1-yl acetate] was 18 nM; that for `CSCOC(=O)[C@@]1(OC(C)=O)CC[C@H]2[C@@H]3CCC4=Cc5c(cnn5-c5ccc(F)cc5)C[C@]4(C)[C@H]3[C@@H](O)C[C@@]21C` [Example 119, (Methylsulfanyl)methyl(1R,3aS,3bS,10aR,10bS,11S,12aS)-1-(acetyloxy)-7-(4-fluorophenyl)-11-hydroxy-10a,12a-dimethyl-1,2,3,3a,3b,4,5,7,10,10a,10b,11,12,12a-tetradecahydrocyclopenta[5,6]naphtho[1,2-f]indazole-1-carboxylate] was 4.6 nM; that for `CSCOC(=O)[C@@]1(OCSC)CC[C@H]2[C@@H]3CCC4=Cc5c(cnn5-c5ccc(F)cc5)C[C@]4(C)[C@H]3[C@@H](O)C[C@@]21C` [Example 120, (Methylsulfanyl)methyl(1R,3aS,3bS,10aR,10bS,11S,12aS)-7-(4-fluorophenyl)-11-hydroxy-10a,12a-dimethyl-1-[(methylsulfanyl)methoxy]-1,2,3,3a,3b,4,5,7,10,10a,10b,11,12,12a-tetradecahydrocyclopenta[5,6]naphtho[1,2-f]indazole-1-carboxylate] was 7 nM.

For the molecule `CCSC(=O)COC(=O)[C@@]1(OC(C)=O)CC[C@H]2[C@@H]3CCC4=Cc5c(cnn5-c5ccc(F)cc5)C[C@]4(C)[C@H]3[C@@H](O)C[C@@]21C` [Example 121, 2-(Ethylsulfanyl)-2-oxoethyl(1R,3aS,3bS,10aR,10bS,11S,12aS)-1-(acetyloxy)-7-(4-fluorophenyl)-11-hydroxy-10a,12a-dimethyl-1,2,3,3a,3b,4,5,7,10,10a,10b,11,12,12a-tetradecahydrocyclopenta[5,6]naphtho[1,2-f]indazole-1-carboxylate], the IC50 is 6.6 nM. For the molecule `CC(=O)O[C@]1(C(=O)CO)CC[C@H]2[C@@H]3CCC4=Cc5c(cnn5-c5ccc(F)cc5)C[C@]4(C)[C@H]3[C@@H](O)C[C@@]21C` [Example 122, (1R,3aS,3bS,10aR,10bS,11S,12aS)-7-(4-Fluorophenyl)-11-hydroxy-1-(hydroxyacetyl)-10a,12a-dimethyl-1,2,3,3a,3b,4,5,7,10,10a,10b,11,12,12a-tetradecahydrocyclopenta[5,6]naphtho[1,2-f]indazol-1-yl acetate], the IC50 came to 1.3 nM. As to `CC(=O)O[C@]1(C(=O)CSC(C)=O)CC[C@H]2[C@@H]3CCC4=Cc5c(cnn5-c5ccc(F)cc5)C[C@]4(C)[C@H]3[C@@H](O)C[C@@]21C` [Example 123, (1R,3aS,3bS,10aR,10bS,11S,12aS)-1-[(Acetylsulfanyl)acetyl]-7-(4-fluorophenyl)-11-hydroxy-10a,12a-dimethyl-1,2,3,3a,3b,4,5,7,10,10a,10b,11,12,12a-tetradecahydrocyclopenta[5,6]naphtho[1,2-f]indazol-1-yl acetate], the IC50 is 5.4 nM. The value for `CSCC(=O)[C@@]1(OC(C)=O)CC[C@H]2[C@@H]3CCC4=Cc5c(cnn5-c5ccc(F)cc5)C[C@]4(C)[C@H]3[C@@H](O)C[C@@]21C` [Example 124, (1R,3aS,3bS,10aR,10bS,11S,12aS)-7-(4-Fluorophenyl)-11-hydroxy-10a,12a-dimethyl-1-[(methylsulfanyl)acetyl]-1,2,3,3a,3b,4,5,7,10,10a,10b,11,12,12a-tetradecahydrocyclopenta[5,6]naphtho[1,2-f]indazol-1-yl acetate] was 2.4 nM; that for `CSCO[C@]1(C(=O)SCF)CC[C@H]2[C@@H]3CCC4=Cc5c(cnn5-c5ccc(F)cc5)C[C@]4(C)[C@H]3[C@@H](O)C[C@@]21C` [Example 125, S-(Fluoromethyl)(1R,3aS,3bS,10aR,10bS,11S,12aS)-7-(4-fluorophenyl)-11-hydroxy-10a,12a-dimethyl-1-[(methylsulfanyl)methoxy]1,2,3,3a,3b,4,5,7,10,10a,10b,11,12,12a-tetradecahydrocyclopenta[5,6]naphtho[1,2-f]indazole-1-carbothioate] was 4.7 nM. `C[C@]12Cc3cnn(-c4ccc(F)cc4)c3C=C1CC[C@@H]1[C@@H]2[C@@H](O)C[C@@]2(C)[C@H]1CC[C@]2(OC(=O)C1CCOCC1)C(=O)SCC#N` [Example 126, (1R,3aS,3bS,10aR,10bS,11S,12aS)-1-{[(Cyanomethyl)sulfanyl]carbonyl}-7-(4-fluorophenyl)-11-hydroxy-10a,12a-dimethyl-1,2,3,3a,3b,4,5,7,10,10a,10b,11,12,12a-tetradecahydrocyclopenta[5,6]naphtho[1,2-f]indazol-1-yl tetrahydro-2H-pyran-4-carboxylate]: the IC50 was determined as 2.7 nM. On to `C[C@]12Cc3cnn(-c4ccc(F)cc4)c3C=C1CC[C@@H]1[C@@H]2[C@@H](O)C[C@@]2(C)[C@H]1CC[C@]2(OC(=O)C1CCOCC1)C(=O)SCCO` [Example 127, (1R,3aS,3bS,10aR,10bS,11S,12aS)-7-(4-Fluorophenyl)-11-hydroxy-1-{[(2-hydroxyethyl)sulfanyl]carbonyl}-10a,12a-dimethyl-1,2,3,3a,3b,4,5,7,10,10a,10b,11,12,12a-tetradecahydrocyclopenta[5,6]naphtho[1,2-f]indazol-1-yl tetrahydro-2H-pyran-4-carboxylate], for which the IC50 was 3.7 nM. As to `CC(=O)O[C@]1(C(=O)CSC#N)CC[C@H]2[C@@H]3CCC4=Cc5c(cnn5-c5ccc(F)cc5)C[C@]4(C)[C@H]3[C@@H](O)C[C@@]21C` [Example 130, (1R,3aS,3bS,10aR,10bS,11S,12aS)-7-(4-Fluorophenyl)-11-hydroxy-10a,12a-dimethyl-1-(thiocyanatoacetyl)-1,2,3,3a,3b,4,5,7,10,10a,10b,11,12,12a-tetradecahydrocyclopenta[5,6]naphtho[1,2-f]indazol-1-yl acetate], the IC50 stood at 5.9 nM. The value for `CCSCC(=O)[C@@]1(OC(C)=O)CC[C@H]2[C@@H]3CCC4=Cc5c(cnn5-c5ccc(F)cc5)C[C@]4(C)[C@H]3[C@@H](O)C[C@@]21C` [Example 131, (1R,3aS,3bS,10aR,10bS,11S,12aS)-1-[(Ethylsulfanyl)acetyl]-7-(4-fluorophenyl)-11-hydroxy-10a,12a-dimethyl-1,2,3,3a,3b,4,5,7,10,10a,10b,11,12,12a-tetradecahydrocyclopenta[5,6]naphtho[1,2-f]indazol-1-yl acetate] was 4.1 nM. With `CSSCC(=O)[C@@]1(OC(C)=O)CC[C@H]2[C@@H]3CCC4=Cc5c(cnn5-c5ccc(F)cc5)C[C@]4(C)[C@H]3[C@@H](O)C[C@@]21C` [Example 134, (1R,3aS,3bS,10aR,10bS,11S,12aS)-7-(4-Fluorophenyl)-11-hydroxy-10a,12a-dimethyl-1-[(methyldisulfanyl)acetyl]-1,2,3,3a,3b,4,5,7,10,10a,10b,11,12,12a-tetradecahydrocyclopenta[5,6]naphtho[1,2-f]indazol-1-yl acetate], the IC50 is 2.9 nM.
